# Biological target: Jak2 (human Jak2 kinase domain, amino acids 808-1132) (Homo sapiens (Human), UniProt O60674)
# Assay: Jak2 inhibition assay (Omnia kinase assay)
# Format: biochemical
# Settings: read-out: Jak2 Enzyme (% inhibition at 1000 nM), Table 1; 1000 nM test compound
# Sequence of Jak2 (human Jak2 kinase domain, amino acids 808-1132) (O60674 808-1132): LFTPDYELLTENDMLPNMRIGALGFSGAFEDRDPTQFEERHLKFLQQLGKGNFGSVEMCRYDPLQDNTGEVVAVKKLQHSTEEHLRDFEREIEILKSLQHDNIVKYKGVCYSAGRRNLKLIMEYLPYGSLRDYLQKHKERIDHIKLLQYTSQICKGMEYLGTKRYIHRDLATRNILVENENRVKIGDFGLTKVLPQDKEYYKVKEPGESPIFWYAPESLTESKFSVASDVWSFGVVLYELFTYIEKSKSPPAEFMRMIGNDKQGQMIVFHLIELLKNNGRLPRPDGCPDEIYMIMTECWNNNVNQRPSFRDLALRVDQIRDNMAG
row,inhibition at 1 µM,Structure (SMILES)
1,71.5%,"CS(=O)(=O)N1CCC(NC(=O)c2cnn3ccc(N4CCC[C@@H]4c4cc(F)ccc4F)nc23)CC1 [Example 44, (R)-5-(2-(2,5-difluorophenyl)pyrrolidin-1-yl)-N-(1-(methylsulfonyl)piperidin-4-yl)pyrazolo[1,5-a]pyrimidine-3-carboxamide]"
2,19.1%,"O=C(Nc1ccccn1)c1cnn2ccc(N3CCC[C@@H]3c3cc(F)ccc3F)nc12 [Example 2, (R)-5-(2-(2,5-difluorophenyl)pyrrolidin-1-yl)-N-(pyridin-2-yl)pyrazolo[1,5-a]pyrimidine-3-carboxamide]"
3,5.8%,"Cn1cnc(CNC(=O)c2cnn3ccc(N4CCC[C@@H]4c4cc(F)ccc4F)nc23)c1 [Example 21, (R)-5-(2-(2,5-difluorophenyl)pyrrolidin-1-yl)-N-((1-methyl-1H-imidazol-4-yl)methyl) pyrazole[1,5-a]pyrimidine-3-carboxamide]"
4,3.7%,CC(C)(CO)NC(=O)c1cnn2ccc(N3CCC[C@@H]3c3cncc(F)c3)nc12 [Example 132]
5,0.3%,"Cc1ncc(F)cc1[C@H]1CCCN1c1ccn2ncc(C(=O)N3CC(O)C3)c2n1 [Example 192, (R)-(5-(2-(5-fluoro-2-methylpyridin-3-yl)pyrrolidin-1-yl)pyrazolo[1,5-a]pyrimidin-3-yl)(3-hydroxyazetidin-1-yl)methanone]"
6,2.8%,"O=C(c1cnn2ccc(N3CCC[C@@H]3c3cncc(F)c3)nc12)N1CC(O)C1 [Example 108, (R)-(5-(2-(5-fluoropyridin-3-yl)pyrrolidin-1-yl)pyrazolo[1,5-a]pyrimidin-3-yl)(3-hydroxyazetid-1-yl)methanone]"
7,7.7%,"CC(C)(C)NC(=O)c1cnn2ccc(N3C[C@H](O)C[C@@H]3c3cccc(F)c3)nc12 [Example 42, N-tert-butyl-5-((2R,4R)-2-(3-fluorophenyl)-4-hydroxypyrrolidin-1-yl)pyrazolo[1,5-a]pyrimidine-3-carboxamide]"
8,12.6%,"CC1(C)OCC(COc2cc(F)cc([C@H]3CCCN3c3ccn4ncc(C(=O)NC5CC5)c4n3)c2)O1 (stereo partly drawn) [Example 206, N-cyclopropyl-5-((2R)-2-(3-((2,2-dimethyl-1,3-dioxolan-4-yl)methoxy)-5-fluorophenyl)pyrrolidin-1-yl)pyrazolo[1,5-a]pyrimidine-3-carboxamide]"
9,73.7%,"CC1(O)CCC(NC(=O)c2cnn3ccc(N4CCC[C@@H]4c4cc(F)ccc4F)nc23)CC1 (single isomer, unassigned; diastereomer 1) [Example 50]"
10,37.2%,"O=C(NC1CC1)c1cnn2ccc(N3CCC[C@@H]3c3cc(F)ccc3OCCN3CCOCC3)nc12 [Example 87, (R)—N-cyclopropyl-5-(2-(5-fluoro-2-(2-morpholinoethoxy)phenyl)pyrrolidin-1-yl)pyrazolo[1,5-a]pyrimidine-3-carboxamide]"
11,8.5%,"COc1ncc(F)cc1[C@H]1CCCN1c1ccn2ncc(C(=O)NC(CO)CO)c2n1 [Example 160, (R)-N-(1,3-dihydroxypropan-2-yl)-5-(2-(5-fluoro-2-methoxypyridin-3-yl)pyrrolidin-1-y1)pyrazolo[1,5-a]pyrimidine-3-carboxamide]"
12,31.9%,"Cn1cc(F)cc([C@H]2CCCN2c2ccn3ncc(C(=O)NCC4CC4)c3n2)c1=O [Example 232, (R)-N-(cyclopropylmethyl)-5-(2-(5-fluoro-1-methyl-oxo-1,2-dihydropyridin-3-yl)pyrrolidin-1-yl)pyrazolo[1,5-a]pyrimidine-3-carboxamide]"
13,6.4%,"C[C@@H](O)[C@H](CO)NC(=O)c1cnn2ccc(N3CCC[C@@H]3c3cc(F)ccc3F)nc12 [Example 174, 5-((R)-2-(2,5-difluorophenyl)pyrrolidin-1-yl)-N-((2S,3R)-1,3-dihydroxybutan-2-yl)pyrazolo[1,5-a]pyrimidine-3-carboxamide]"
14,34.1%,"CONC(=O)c1cnn2ccc(N3CCC[C@@H]3c3cc(F)ccc3F)nc12 [Example 65, (R)-5-(2-(2,5-difluorophenyl)pyrrolidin-1-yl)-N-methoxypyrazolo[1,5-a]pyrimidine-3-carboxamide]"
15,54.8%,"COc1ncc(F)cc1[C@H]1CCCN1c1ccn2ncc(C(=O)NC3CC3)c2n1 [Example 79, (R)—N-cyclopropyl-5-(2-(5-fluoro-2-methoxypyridin-3-yl)pyrrolidin-1-yl)pyrazolo[1,5-a]pyrimidine-3-carboxamide]"
16,28%,"COc1ccc(F)cc1[C@H]1CCCN1c1ccn2ncc(C(=O)NC[C@@H](O)CO)c2n1 [Example 56, N—((R)-2,3-dihydroxypropyl)-5-((R)-2-(5-fluoro-2-methoxyphenyl)pyrrolidin-1-yl)pyrazolo[1,5-a]pyrimidine-3-carboxamide]"

row,inhibition at 1 µM,Structure (SMILES)
1,19.2%,"O=C(Nc1ccc(F)cn1)c1cnn2ccc(N3CCC[C@@H]3c3cncc(F)c3)nc12 [Example 95, (R)—N-(5-fluoropyridin-2-yl)-5-(2-(5-fluoropyridin-3-yl)pyrrolidin-1-yl)pyrazolo[1,5-a]pyrimidine-3-carboxamide]"
2,23%,"COc1ccc(F)cc1[C@H]1CCCN1c1ccn2ncc(C(=O)NCCN3CCOCC3)c2n1 [Example 54, (R)-5-(2-(5-fluoro-2-methoxyphenyl)pyrrolidin-1-yl)-N-(2-morpholinoethyl)pyrazolo[1,5-a]pyrimidine-3-carboxamide]"
3,29.7%,"CC1(NC(=O)c2cnn3ccc(N4[C@H](CO)CC[C@@H]4c4cncc(F)c4)nc23)CC1 [Example 214, 5-((2R,5S)-2-(5-fluoropyridin-3-yl)-5-(hydroxymethyl)pyrrolidin-1-yl)-N-(1-methylcyclopropyl)pyrazolo[1,5-a]pyrimidine-3-carboxamide]"
4,9.3%,"Cc1ncc(F)cc1[C@H]1CCCN1c1ccn2ncc(C(=O)NCCO)c2n1 [Example 188, (R)-5-(2-(5-fluoro-2-methylpyridin-3-yl)pyrrolidin-1-yl)-N-(2-hydroxyethyl)pyrazolo[1,5-a]pyrimidine-3-carboxamide]"
5,11.8%,"Cc1ncc(F)cc1[C@H]1CCCN1c1ccn2ncc(C(=O)NC(C)C)c2n1 [Example 184, (R)-5-(2-(5-fluoro-2-methylpyridin-3-yl)pyrrolidin-1-yl)-N-isopropylpyrazolo[1,5-a]pyrimidine-3-carboxamide]"
6,10.6%,"Cc1ncc(F)cc1[C@H]1CCCN1c1ccn2ncc(C(=O)N[C@H]3CC[C@H](O)C3)c2n1 [Example 196, 5-((R)-2-(5-fluoro-2-methylpyridin-3-yl)pyrrolidin-1-yl)-N-((1S,3S)-3-hydroxycyclopentyl)pyrazolo[1,5-a]pyrimidine-3-carboxamide]"
7,30.4%,"N#CCNC(=O)c1cnn2ccc(N3CCC[C@@H]3c3cc(F)ccc3F)nc12 [Example 39, (R)—N-(cyanomethyl)-5-(2-(2,5-difluorophenyl)pyrrolidin-1-yl)pyrazolo[1,5-a]pyrimidine-3-carboxamide]"
8,26.6%,"Cn1cc(F)cc([C@H]2CCCN2c2ccn3ncc(C(=O)Nc4cccnc4)c3n2)c1=O [Example 231, (R)-5-(2-(5-fluoro-1-methyl-2-oxo-1,2-dihydropyridin-3-yl)pyrrolidin-1-yl)-N-(pyridin-3-yl)pyrazolo[1,5-a]pyrimidine-3-carboxamide]"
9,6.8%,"O=C(NCC(F)CCl)c1cnn2ccc(N3CCC[C@@H]3c3cncc(F)c3)nc12 (stereo partly drawn) [Example 97, N-(3-chloro-2-fluoropropyl)-5-((R)-2-(5-fluoropyridin-3-yl)pyrrolidin-1-yl)pyrazolo[1,5-a]pyrimidine-3-carboxamide]"
10,15.3%,"COCCOc1cc(F)cc([C@H]2CCCN2c2ccn3ncc(C(=O)NC4CC4)c3n2)c1 [Example 77, (R)—N-cyclopropyl-5-(2-(3-fluoro-5-(2-methoxyethoxy)phenyl)pyrrolidin-1-yl)pyrazole [1,5-a]pyrimidine-3-carboxamide]"
11,7.4%,"CC(C)[C@H](CO)NC(=O)c1cnn2ccc(N3CCC[C@@H]3c3cncc(F)c3)nc12 [Example 122, 5-((R)-2-(5-fluoropyridin-3-yl)pyrrolidin-1-yl)-N-((R)-1-hydroxy-3-methylbutan-2-yl)pyrazolo[1,5-a]pyrimidine-3-carboxamide]"
12,-0.8%,"Cc1ncc(F)cc1[C@H]1CCCN1c1ccn2ncc(C(=O)NC(C)(C)C)c2n1 [Example 183, (R)-N-tert-butyl-5-(2-(5-fluoro-2-methylpyridin-3-yl)pyrrolidin-1-yl)pyrazolo[1,5-a]pyrimidine-3-carboxamide]"
13,14.4%,"COc1ncc(F)cc1[C@H]1CCCN1c1ccn2ncc(C(=O)NCC(C)(C)O)c2n1 [Example 158, (R)-5-(2-(5-fluoro-2-methoxypyridin-3-yl)pyrrolidin-1-yl)-N-(2-hydroxy-2-methylpropyl)pyrazolo[1,5-a]pyrimidine-3-carboxamide]"
14,1.3%,"CN(C)C(=O)c1cnn2ccc(N3CCC[C@@H]3c3cc(F)ccc3F)nc12 [Example 27, (R)-5-(2-(2,5-difluorophenyl)pyrrolidin-1-yl)-N,N-dimethylpyrazolo[1,5-a]pyrimidine-3-carboxamide]"
15,8.9%,"COc1ncc(F)cc1[C@H]1CCCN1c1ccn2ncc(C(=O)NC[C@@H](O)CO)c2n1 [Example 150, N-((R)-2,3-dihydroxypropyl)-5-((R)-2-(5-fluoro-2-methoxypyridin-3-yl)pyrrolidin-1-yl)pyrazolo[1,5-a]pyrimidine-3-carboxamide]"
16,2.7%,"O=C(NOCCO)c1cnn2ccc(N3CCC[C@@H]3c3cc(F)cnc3Cl)nc12 [Example 225, (R)-5-(2-(2-chloro-5-fluoropyridin-3-yl)pyrrolidin-1-yl)-N-(2-hydroxyethoxy)pyrazolo[1,5-a]pyrimidine-3-carboxamide]"

row,Structure (SMILES),inhibition at 1 µM
1,"Cc1ncc(F)cc1[C@H]1CCCN1c1ccn2ncc(C(=O)N[C@H]3CN4CCC3CC4)c2n1 [Example 198, 5-((R)-2-(5-fluoro-2-methylpyridin-3-yl)pyrrolidin-1-yl)-N-((R)-quinuclidin-3-yl)pyrazolo[1,5-a]pyrimidine-3-carboxamide]",1.6%

# — patent US10251889B2, “Substituted pyrazolo[1,5-a]pyrimidine compounds as Trk kinase inhibitors” (Array BioPharma, Inc., priority 2009, dated 2019)
